Experimental data taken from publication PMC10891803, “Seleno-Warfare against Cancer: Decoding Antitumor Activity of Novel Acylselenoureas and Se-Acylisoselenoureas” (Pharmaceutics, 2024).
Where two headings read alike, the source gives them in different places.

Tests used:
DU-145 cells [1] = assay: Muse Annexin V/7-AAD apoptosis assay; format: cell-based, human; settings: DU-145, 2.5 μM, 48 h
Method: (§1) The apoptosis assays were conducted using the Muse Caspase-3/7 assay kit and the Annexin V/7-AAD kit (EMD Millipore, Darmstadt, Germany) following the manufacturer’s instructions. Initially, DU-145 cells were seeded in 6-well plates at a density of 1 × 10^5 cells per well. After 24 h of incubation, the cells received treatment with 2.5 µM and 5 µM of compound 4. Subsequently, the cells were incubated for 48 h. Upon completion of the treatment period, the cells were harvested using enzyme-free Cell Dissociation Buffer. The samples were then subjected to the appropriate dyes according to the manufacturer’s instructions and analyzed using the Muse Cell Analyzer (Merck Millipore, Darmstadt, Germany).
Apoptosis was assessed using the Muse Annexin V & Dead Cell assay kit following the manufacturer’s guidelines.

[2] = tested on: apoptotic proteins in DU-145 cells; assay: Western blot of apoptotic proteins; format: cell-based, human; settings: DU-145, 5 µM, 24 h
Method: Western blot analysis was conducted to evaluate changes in protein expression levels before and after treatment. In brief, DU-145 cells were treated with 5 µM of compound 4, and upon completing the designated treatment duration, cell lysis was achieved using RIPA buffer (Thermo Scientific, USA), supplemented with a protease inhibitor cocktail (Thermo Scientific, USA). Subsequently, the resulting lysates were chilled on ice for 30 min and then centrifuged at 10,000 rpm for 15 min to remove cellular debris. Total protein concentration was determined using the BCA assay (Thermo Scientific, USA). Equivalent quantities of cell lysates were separated using NuPAGE 4–12% gels (Life Technologies, Carlsbad, CA, USA), followed by electro-transfer onto a PVDF membrane. Various antibodies were employed to investigate protein expression levels, with detection accomplished using the Enhanced Chemiluminescent reagent (Life Technologies, USA). All antibodies utilized in this study were procured from Cell Signaling Technologies (Danvers, MA, USA).

HCT-116 = assay: MTT cell viability assay, HCT-116; format: cell-based, human; settings: 10 µM, 48 h, MTT screening (Figure S1)
Method: (§2) The cell lines were purchased from the American Type Culture Collection (ATCC). The four tumor cell lines used were as follows: MDA-MB-231 (triple-negative breast cancer), HTB-54 (lung cancer), DU-145 (prostate cancer), and HCT-116 (colon cancer), and the non-tumoral cell line 185-B5 (mammary tissue) were grown in Roswell Park Memorial Institute (RPMI) 1640 medium culture (Thermo Scientific, USA), supplemented with 10% fetal bovine serum (FBS) (Thermo Scientific, USA) and 1% of antibiotics (10,000 units/mL penicillin and 10 mg/mL streptomycin (Thermo Scientific, USA)). Cells were preserved in tissue culture flasks at 37 °C and 5% CO2. The culture medium was replaced every two to three days.
(§3) Cell viability was determined using the MTT colorimetric assay. A total of 10,000 cells were seeded in each well in a 96-well plate for 24 h. Then, cells were incubated with the corresponding concentration of each tested compound and with DMSO (1%) as control for 48 h. Each compound was dissolved in DMSO at a stock concentration of 0.01 M. Firstly, each compound was tested at 2 concentrations (10 µM and 50 µM) in four human tumoral cell lines MDA-MB-231, HTB-54, DU-145, and HCT-116. Serial dilutions from stock concentration with culture medium were prepared. […] The cell viability was determined by the addition of 20 µL of MTT and its incubation for 2.5 h. Later, the culture medium was removed, and 50 µL of DMSO was added to dissolve formazan crystals. The absorbance was measured at 550 nm. Inhibitory concentration 50 (IC50) and selectivity index (SI) were calculated. Three different experiments were performed independently.
(§4) Cell viability results are expressed as the mean ± standard deviation (SD), and experiments were independently performed thrice in triplicates. IC50 values were determined using a non-linear curve regression analysis calculated by OriginPro 9.0 software.

DU-145 cells [3] = assay: Muse Caspase-3/7 assay; format: cell-based, human; settings: DU-145, 2.5 and 5 µM, 48 h
Method: as §1

[4] = tested on: MDA-MB-231, HTB-54, and DU-145; assay: MTT dose-response in the three tumoral cell lines; format: cell-based, human; settings: 48 h, read-out: IC50 toward the tumoral cell lines
Method: as §3, §4

[5] = tested on: panel of 60 cancer cell lines; assay: NCI60 One-Dose screening; format: cell-based; settings: 1·10^−5 M, 48 h, mean of 60 cancer cell lines
Method: (§5) The ten compounds with the highest cell growth inhibition activity were submitted to the Developmental Therapeutics Program (DTP) of the National Cancer Institute (NCI). The assay consists of the evaluation of the cytotoxicity by a One-Dose screening at 10^−5 M against a panel of 60 cancer cell lines of different tumors (leukemia, lung, central nervous system (CNS), melanoma, ovarian, renal, prostate, and breast cancer cell lines). […] A range of 5000–40,000 cells/well were seeded and cultured in RPMI 1640 containing 5% of FBS and 2 mM L-glutamine and were inoculated into 96-well microtiter plates in 100 µL. The microtiter plates are incubated at 37 °C and 5% humidified CO2 for 24 h prior to the addition of experimental drugs. After that, an experimental drug was added, and the microtiter was incubated for 48 h.

HTB-54 = assay: MTT cell viability assay, HTB-54; format: cell-based, human; settings: 48 h
Method: as §2, §3, §4

[6] = tested on: MDA-MB-231, HTB-54, DU-145, and HCT-116; assay: MTT initial screening in four tumor cell lines; format: cell-based; settings: Homo sapiens, in at least three cell lines, 48 h, read-out: cell growth inhibition
Method: as §3

DU-145 [7] = assay: MTT cell viability assay, DU-145; format: cell-based, human; settings: 48 h
Method: as §2, §3, §4

[8] = tested on: panel of 60 cancer cell lines; assay: NCI60 Five-Dose assay; format: cell-based; settings: Five-Dose assay 0.01–100 µM, 48 h, 60 cell line panel
Method: as §5

184-B5 = assay: MTT cell viability assay, non-malignant 184-B5; format: cell-based; settings: Homo sapiens, 48 h, mean ± SD of three experiments, read-out: IC50 184-B5 (Breast, non-tumoral)
Method: as §2, §3, §4

MDA-MB-231 = assay: MTT cell viability assay, MDA-MB-231; format: cell-based, human
Method: as §2, §3, §4

MDA-MB-231 cells = settings: cited from earlier work
DU-145 [9] = tested on: DU-145; design: method as in PMID 11306488; settings: cited from earlier work
[10] = 10 µM, MTT screening (Figure S1)

## CC(=O)Oc1ccccc1C(=O)[Se]C(=NC(C)C)NC(C)C [Compound 4]
DU-145 cells [1]
  cells exhibiting signs of apoptosis: over 25%
[2]
  Bax expression: upregulation
  Bcl-2 expression: Downregulation
  caspase-3 cleavage and activation: increased the cleavage and activation
  expression of pro-caspase-9: reduction
HCT-116
  percentage of cell growth, HCT-116: 36.77%
DU-145 cells [3]
  caspase 3/7 activity: dose-dependent increase
[4]
  IC50: < 7.5 µM
[4]; Homo sapiens
  IC50: < 10 µM
[5]
  mean value of cell growth, One-Dose assay: −67.93%
HTB-54; [10]
  percentage of cell growth, HTB-54: -34.81%
HTB-54; Homo sapiens, HTB-54, MTT, mean ± SD of three experiments, read-out: IC50 HTB-54 (Lung)
  IC50: 7.2 ± 1.81 µM
[6]
  inhibition at 10 µM: > 50%
DU-145 [7]; [10]
  percentage of cell growth, DU-145: -82.47%
DU-145 [7]; Homo sapiens, DU-145, MTT, mean ± SD of three experiments, read-out: IC50 DU-145 (Prostate)
  IC50: 5.06 ± 0.02 µM
[8]
  GI50: < 2 µM
184-B5
  IC50: 9.6 ± 0.97 µM
MDA-MB-231; 10 µM, 48 h, MTT screening (Figure S1)
  percentage of cell growth, MDA-MB-231: -41.78%
MDA-MB-231; Homo sapiens, MDA-MB-231, MTT, 48 h, mean ± SD of three experiments, read-out: IC50 MDA-MB-231 (Breast)
  IC50: 5.48 ± 0.42 µM
MDA-MB-231; IC50 184-B5/IC50 MDA-MB-231
  Selectivity index (SI): 1.75

## O=[Se]=O [SeO2]
MDA-MB-231 cells; MDA-MB-231
  cell viability: at least 50%

## [Se] [elemental Se]
DU-145 [9]
  type of cell death: apoptotic cell death
MDA-MB-231 cells; MDA-MB-231 cells incubated alone with Se
  effect on cell growth: no effect on cell growth
